Reference: US10251865B2, “Method of activating regulatory T cells with alpha-2B adrenergic receptor agonists” (Allergan, Inc., priority 2010, dated 2019)

Key:
[1] = system: SNL Rat Model of Allodynic Neuropathic Pain; settings: background statement on the model, cited from earlier work
IL-2 = IL-2 levels in tissues from SNL rats (Luminex cytokine analysis); format: in vivo, rat; settings: for IL-2 level, Ipsilateral DRGL4 / IL-2 level, Ipsilateral DRGL5, L6 / IL-2 level, Ipsilateral spinal cord / IL-2 level, Serum: 2.4 mg/kg/day via osmotic minipump, mean ± SEM
Procedure: (§1) The SNL (or Chung) Model in the rat is an accepted standard animal model of neuropathic pain and is thought to mimic the human causalgia condition with respect to symptoms (guarding behavior, mechanical allodynia) and alleviation by pharmacological agents. […] The SNL Model is performed by tightly ligating the L-5 and L-6 spinal nerves, which produces tactile allodynia or sensitivity to light touch as described (Kim and Chung, 1992). Male sprague-dawley rats (100-120 grams; Charles River, Wilmington, Mass.) were anesthetized through inhalation of an isoflurane/oxygen mix. The surgical site was shaved and prepared with betadine. An incision was made from the thoracic vertebra XIII toward down the sacrum. The muscle was separated from the spinal vertebra (left side) at the L4-S2 levels. The L6 vertebra was located and then the transverse process was carefully removed with a small rongeur to visually identify the L4-L6 spinal nerves. The L5 and L6 spinal nerves was isolated and tightly ligated with 6-0 silk thread. A complete homeostasis was confirmed and then the wound was sutured. The duration of the surgery was approximately 20 minutes. A small amount of antibiotic ointment was applied to the incised area and the animals were transferred to a plastic recovery cage under a regulated heat-temperature lamp. Animals were not given any topical or local anesthetics post-operatively because they will inhibit the development of the pain syndrome, which is the phenomenon to be studied.
Compound A was formulated in 50% DMSO (Sigma, St. Louis, Mo.). This solution was loaded into the osmotic minipumps (Model 1007D, Alzet Corp., Palo Alto, Calif.) set to deliver the drug at a rate of 0.5 ul/hr resulting in a final dose of 2.4 mg/kg/day. The vehicle for these studies is 50% DMSO administered via osmotic minipumps at a rate of 0.5 ul/hr/kg.
The levels of cytokines were measured with a sensitive, fluorescent multiplex immunobead assay (Luminex; Biosource-Invitrogen, Carlsbad, Calif.). 9 plex rat cytokine/chemokine (RCYTO-80K-09) panel from Millipore was used. Cytokine levels in samples were analyzed by using the corresponding Millipore cytokine Beadmate pairs. For the Luminex assay, a 96-well filter plate (Millipore) was pre-wetted with 25 μl of Beadlyte cytokine assay buffer. A vacuum manifold (Millipore, Billerica, Mass.) was used to aspirate the buffer from the wells. 25 μl of sample was placed in each well. The beads (25 μl) were pipetted into the wells. Standard curves for each cytokine were generated in duplicate by placing 25 μl of the appropriate dilution of standards purchased from Millipore. The plate was incubated overnight with gentle shaking in the dark at 4° C. Beads were washed with Beadlyte cytokine assay buffer (Millipore) and wash buffer was eliminated using a vacuum manifold. 25 μl of the appropriate biotin-conjugated secondary antibody (Millipore) was added to each well for 90 minutes at room temperature with gentle shaking. Beads were incubated with Beadlyte streptavidin-phycoerythrin (1:25 dilution in Beadlyte assay buffer) for 30 minutes at room temperature with gentle shaking. Beads were washed, resuspended in 125 μl of Beadlyte buffer, and analyzed by Luminex 100 instrument (Luminex Corporation, Austin, Tex.). The mean fluorescence intensities obtained from 50 beads per cytokine minimum were analyzed using Upstate Beadview software. Standard curves were generated (8 data points including a zero standard run in duplicate) using a four- or five-parametric logistic curve. R-squared values were between 0.99 and 1. Data are expressed in pg/ml or ng/ml values.

[2] = system: SNL Rat Model of Allodynic Neuropathic Pain; experiment: Allodynia reversal (Von Frey) in the SNL Rat Model of Allodynic Neuropathic Pain; format: in vivo; settings: SNL rats, 3 mg/kg BID SC alone
Procedure: as §1
The allodynia is quantitated in the animals having received the Chung surgery by stimulation with a series of 8 Von Frey hairs on the mid planter area of the surgical hind paw in the up-down manner as described in the literature (Dixon, 1980). Von Frey hairs are applied in an up-down manner depending on the response until the 50% threshold is established. The Von Frey hairs are applied to the plantar surface of the surgical paw with just enough force to bend them. A positive response is recorded if the paw is sharply withdrawn. Eight Von Frey hairs were used 3.61, 3.84, 4.08, 4.31, 4.56, 4.74, 4.93 and 5.18 yielding a gram force of 0.25-15 grams.
[formula] • Mean±SEM: • Mean=average of allodynia reversals • SEM=STDEV/SQ ROOT of n
Testing with compounds is done 2-3 weeks after surgery to establish stable allodynia. In all experimental animals, baseline measurements were taken prior to drug administration and then at 24 hours and 5-23 days post dosing with Alzet osmotic minipump. The investigator was blinded to the identity of the drug groups. The % allodynia reversal is calculated as: [(Postdrug threshold−Predrug threshold)/(15-Predrug threshold)]×100.
Compound B was formulated in 50% DMSO (dimethyl sulfoxide; Sigma, St. Louis, Mo.). This solution was dosed orally TID at a dose of 0.3 or 1 mg/kg. For dosing in the osmotic minipumps (Model 1007D, Alzet Corp., Palo Alto, Calif.) the compound was loaded onto the pumps set to deliver a final dose of either 1 or 3 mg/kg/day. The vehicle for these studies is 50% DMSO.
Compound C was formulated first in 100% DMSO (Sigma, St. Louis, Mo.), then diluted down in 30% DMSO for a 10 mg/ml solution; 15% DMSO for a 3 mg/ml solution and further dilutions were made in water. The compound was dosed orally TID at a dose of either 0.3 or 1 mg/kg for a total daily dose of 1 or 3 mg/kg/day, respectively.

[3] = Table 3 study, mean % MPE ± SEM

NCC1(CC(=O)O)CCCCC1 [Gabapentin]
alleviation of allodynia ([1]; 30 mg/kg p.o.): 50%

OCCNC(=S)NCc1cccc(Cl)c1F [Compound A]
IL-2 level, Ipsilateral DRGL4 (IL-2; 24 hours): 101.63 ± 20.55 pg/mL | IL-2 level, Ipsilateral DRGL5, L6 (IL-2; 24 hours): 211 ± 33.72 pg/mL | IL-2 level, Ipsilateral spinal cord (IL-2; 24 hours): 345 ± 19.34 pg/mL | IL-2 level, Serum (IL-2; 24 hours): 978 ± 77.13 pg/mL | IL-2 level, Ipsilateral DRGL4 (IL-2; 5 days): 69.52 ± 9.42 pg/mL | IL-2 level, Ipsilateral DRGL5, L6 (IL-2; 5 days): 138.35 ± 22.59 pg/mL | IL-2 level, Ipsilateral spinal cord (IL-2; 5 days): 351.75 ± 17.19 pg/mL | IL-2 level, Serum (IL-2; 5 days): 380.25 ± 61.67 pg/mL | spinal nerve ligation surgery-induced increase of IL-2 levels (IL-2; result in words): attenuated

C=CC[C@@H]1/C=C(\C)C[C@H](C)C[C@H](OC)[C@H]2O[C@@](O)(C(=O)C(=O)N3CCCC[C@H]3C(=O)O[C@H](/C(C)=C/[C@@H]3CC[C@@H](O)[C@H](OC)C3)[C@H](C)[C@@H](O)CC1=O)[C@H](C)C[C@@H]2OC [FK506, reference compound]
% Allodynia Reversal 24 hr post ([2]; Table 2 study): −5.77 ± 3.43% | % Allodynia Reversal 7 day post ([2]; Table 2 study): −6.39 ± 4.85% | % Allodynia Reversal 24 hr post [2, 3]: −0.53 ± 6.21% | % Allodynia Reversal 23 day post [2, 3]: 2.01 ± 5.86%

CN1CC[C@]23c4c5ccc(O)c4O[C@H]2[C@@H](O)C=C[C@H]3[C@H]1C5 [morphine]
alleviation of tactile allodynia [1]: does not alleviate
